Measured values as given in PubChem BioAssay (NCI).
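Cultured in 96-well plates, cells were exposed to test compound for 48 hours across five concentrations. TGI: concentration producing complete growth inhibition.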

Experiments:
Assay in all cases: inhibition of tumour cell growth, NCI panel, 48 h
K-562 leukemia = tested on: K-562 leukemia
BT-549 breast = tested on: BT-549 breast
SNB-19 CNS = tested on: SNB-19 CNS
MOLT-4 leukemia = tested on: MOLT-4 leukemia
IGROV1 ovarian = tested on: IGROV1 ovarian
OVCAR-3 ovarian = tested on: OVCAR-3 ovarian
SK-MEL-5 melanoma = tested on: SK-MEL-5 melanoma
NCI/ADR-RES ovarian = tested on: NCI/ADR-RES ovarian
HT29 colon = tested on: HT29 colon
SR leukemia = tested on: SR leukemia
TK-10 renal = tested on: TK-10 renal
NCI-H460 lung = tested on: NCI-H460 lung
A549 NSCLC = tested on: A549 NSCLC
HL-60(TB) leukemia = tested on: HL-60(TB) leukemia
SK-MEL-2 melanoma = tested on: SK-MEL-2 melanoma
HCT-116 colon = tested on: HCT-116 colon
ACHN renal = tested on: ACHN renal
NCI-H226 lung = tested on: NCI-H226 lung
UO-31 renal = tested on: UO-31 renal
OVCAR-8 ovarian = tested on: OVCAR-8 ovarian
786-0 renal = tested on: 786-0 renal
MDA-MB-435 = tested on: MDA-MB-435
SK-MEL-28 melanoma = tested on: SK-MEL-28 melanoma
PC-3 prostate = tested on: PC-3 prostate
KM12 colon = tested on: KM12 colon
OVCAR-4 ovarian = tested on: OVCAR-4 ovarian
COLO 205 colon = tested on: COLO 205 colon
MCF7 breast = tested on: MCF7 breast
EKVX NSCLC = tested on: EKVX NSCLC
SF-295 CNS = tested on: SF-295 CNS
UACC-257 melanoma = tested on: UACC-257 melanoma
HCC-2998 colon = tested on: HCC-2998 colon
SN12C renal = tested on: SN12C renal
CAKI-1 renal = tested on: CAKI-1 renal
SK-OV-3 ovarian = tested on: SK-OV-3 ovarian
SF-268 CNS = tested on: SF-268 CNS
MALME-3M melanoma = tested on: MALME-3M melanoma
MDA-N = tested on: MDA-N
HOP-62 NSCLC = tested on: HOP-62 NSCLC
RXF 393 renal = tested on: RXF 393 renal
SW-620 colon = tested on: SW-620 colon
M14 melanoma = tested on: M14 melanoma
HS 578T breast = tested on: HS 578T breast
U251 CNS = tested on: U251 CNS
UACC-62 melanoma = tested on: UACC-62 melanoma
T-47D breast = tested on: T-47D breast
LOX IMVI melanoma = tested on: LOX IMVI melanoma
SNB-75 CNS = tested on: SNB-75 CNS
NCI-H522 lung = tested on: NCI-H522 lung
HOP-92 NSCLC = tested on: HOP-92 NSCLC
RPMI-8226 leukemia = tested on: RPMI-8226 leukemia
OVCAR-5 ovarian = tested on: OVCAR-5 ovarian
A498 renal = tested on: A498 renal
NCI-H23 lung = tested on: NCI-H23 lung
HCT-15 colon = tested on: HCT-15 colon
MDA-MB-231 breast = tested on: MDA-MB-231 breast
DU-145 prostate = tested on: DU-145 prostate
CCRF-CEM leukemia = tested on: CCRF-CEM leukemia
SF-539 CNS = tested on: SF-539 CNS

SMILES: Clc1ccc2c(NCCCCN3OC3c3ccccc3)ccnc2c1 (centres undefined)
- TGI (K-562 leukemia): 4.92 µM
- TGI (BT-549 breast): 27 µM
- TGI (SNB-19 CNS): 18.9 µM
- TGI (MOLT-4 leukemia): 9.3 µM
- TGI (IGROV1 ovarian): 27.7 µM
- TGI (OVCAR-3 ovarian): 9.33 µM
- TGI (SK-MEL-5 melanoma): 11.4 µM
- TGI (NCI/ADR-RES ovarian): 40.2 µM
- TGI (HT29 colon): 10.9 µM
- TGI (SR leukemia): > 100 µM
- TGI (TK-10 renal): 22 µM
- TGI (NCI-H460 lung): 21.9 µM
- TGI (A549 NSCLC): 19.2 µM
- TGI (HL-60(TB) leukemia): 2630 nM
- TGI (SK-MEL-2 melanoma): 11.1 µM
- TGI (HCT-116 colon): 4.36 µM
- TGI (ACHN renal): 22.2 µM
- TGI (NCI-H226 lung): 37.6 µM
- TGI (UO-31 renal): 28.6 µM
- TGI (OVCAR-8 ovarian): 13.1 µM
- TGI (786-0 renal): 6.67 µM
- TGI (MDA-MB-435): 14.5 µM
- TGI (SK-MEL-28 melanoma): 7.42 µM
- TGI (PC-3 prostate): 26.7 µM
- TGI (KM12 colon): 22.8 µM
- TGI (OVCAR-4 ovarian): 12 µM
- TGI (COLO 205 colon): 7.12 µM
- TGI (MCF7 breast): 17.5 µM
- TGI (EKVX NSCLC): 38 µM
- TGI (SF-295 CNS): 26.1 µM
- TGI (UACC-257 melanoma): 34.5 µM
- TGI (HCC-2998 colon): 11.1 µM
- TGI (SN12C renal): 24.7 µM
- TGI (CAKI-1 renal): 21.8 µM
- TGI (SK-OV-3 ovarian): 34.5 µM
- TGI (SF-268 CNS): 27.1 µM
- TGI (MALME-3M melanoma): 16 µM
- TGI (MDA-N): 16.7 µM
- TGI (HOP-62 NSCLC): 10.9 µM
- TGI (RXF 393 renal): 12 µM
- TGI (SW-620 colon): 18.5 µM
- TGI (M14 melanoma): 6.22 µM
- TGI (HS 578T breast): 35.9 µM
- TGI (U251 CNS): 9.13 µM
- TGI (UACC-62 melanoma): 27.1 µM
- TGI (T-47D breast): 16.9 µM
- TGI (LOX IMVI melanoma): 5.67 µM
- TGI (SNB-75 CNS): 11.4 µM
- TGI (NCI-H522 lung): 16.4 µM
- TGI (HOP-92 NSCLC): 25.8 µM
- TGI (RPMI-8226 leukemia): 5.98 µM
- TGI (OVCAR-5 ovarian): 29.8 µM
- TGI (A498 renal): 12.3 µM
- TGI (NCI-H23 lung): 35.2 µM
- TGI (HCT-15 colon): 23.5 µM
- TGI (MDA-MB-231 breast): 5.92 µM
- TGI (DU-145 prostate): 24.9 µM
- TGI (CCRF-CEM leukemia): 8.09 µM
- TGI (SF-539 CNS): 3.63 µM
